Literature values as cited in US20160347782A1, “4-methylcatechol Derivatives and Uses Thereof” (THANARES GMBH, priority 2011, published 2016).

Assays:
liver cells = liver cells in vitro; in the μmol range
[1] = tested on: normal human epidermal melanocytes

Growth of normal human epidermal melanocytes [1]	SMILES	Proliferation of melanoma cells (melanoma cells)	Inhibition of hepatocellular cholesterol synthesis (liver cells)
without impairing	Cc1ccc(O)c(O)c1 [Example 4-MC, 4-Methylcatechol]	inhibits	inhibits
–	O=c1c(O)c(-c2ccc(O)c(O)c2)oc2cc(O)cc(O)c12 [quercetin]	–	inhibits
